Source: patent US7365221B2, “Monoacylated betulin and dihydrobetulin derivatives, preparation thereof and use thereof” (priority 2002, dated 2008)
Like-named read-outs stand apart in the source and are kept apart here.

How the values were obtained:
[1] = test system: HIV-1 (IIIB isolate); format: cell-based; conditions: average of at least two experiments; cell line not stated; read-out: Anti-HIV Activity EC50
Experimental: (§1) The biological evaluation of HIV-1 inhibition was carried out as follows according to established protocols (Montefiori et al., Clin Microbiol. 26:231-235 (1988)). The human T-cell line, MT-2, was maintained in continuous culture with complete medium (RPMI 1640 with 10% fetal calf serum supplemented with L-glutamine at 5% CO2 and 37° C.). Test samples were first dissolved in dimethyl sulfoxide at a concentration of 10 mg/ml to generate master stocks with dilutions made into tissue culture media to generate working stocks. The following drug concentrations were routinely used for screening: 100, 20, 4 and 0.8 μg/ml. For agents found to be active, additional dilutions were prepared for subsequent testing so that an accurate EC50 value (defined below) could be determined. Test samples were prepared and to each sample well was added 90 μl of media containing MT-2 cells at 3×10^5 cells/ml and 45 μl of virus inoculum (HIV-1 IIIIB isolate) at a concentration necessary to result in 80% killing of the cell targets at 5 days post-infection (PI). Control wells containing virus and cells only (no drug) and cells only (no virus or drug) were also prepared. A second set of samples were prepared identical to the first and were added to cells under identical conditions without virus (mock infection) for toxicity determinations (IC50 defined below). In addition, AZT was also assayed during each experiment as a positive drug control. On day 5 PI, virus-induced cell killing was determined by measuring cell viability using the XTT method. Compound toxicity was determined by XTT using the mock-infected samples. If a test sample had suppressive capability and was not toxic, its effects were reported in the following terms: IC50, the concentration of test sample which was toxic to 50% of the mock-infected MT-2 cells; EC50, the concentration of the test sample that was able to suppress HIV replication by 50%; and the Therapeutic index (TI) the ratio of the IC50 to EC50.
(§2) Compounds of the present invention were assayed for anti-HIV activity according to the following assay procedures. The T cell line, H9, and the promonocytic cell line, U937, were maintained separately in continuous culture with complete medium (RPMI 1640 with 10% fetal calf serum) at 5% CO2 and 37° C. The cell lines were used in experiments only when in the logarithmic phase of growth, whereas uninfected peripheral blood mononuclear cells (PBMCs) were first stimulated with PHA (1 μg/mL) for three days. All cell targets were incubated with HIV-1 (IIIB isolate, 1×10^6 TCID50/mL) for one hour at 37° C. and 5% CO2. The cell lines and PBMCs were washed thoroughly to remove unadsorbed virions and resuspended at 4×10^5 cells/mL in complete medium or complete medium with 10% v/v interleukin 2 (IL-2), respectively. 100 μL aliquots were placed into wells of 96-well tissue culture plates containing an equal volume of test compounds (diluted in the appropriate culture medium). The toxicity of each compound was assessed by determining the number of compound-exposed uninfected cells that remained after five days at 37° C. and 5% CO2. A p24 antigen ELISA assay was used to determine the level of virus released in the medium of the HIV-infected cultures. […] The cutoff for the p24 ELISA assay was 12.5 pg/mL. p24 in the culture medium was quantitated against a standard curve containing known amounts of p24. The effective (EC50) and inhibitory (IC50) concentrations for anti-HIV activity and cytotoxicity, respectively, were determined.

[2] = test system: uninfected cells; experiment: Cytotoxicity on compound-exposed uninfected cells
Experimental: as §1, §2

[3] = test system: HIV-1 replication in H9 lymphocyte cells; conditions: Fujioka et al. 1994, cited from earlier work
[4] = read-out: Cytotoxicity IC50, average of at least two experiments, uninfected cells
[5] = H9 lymphocyte cells, read-out: EC50, inhibitory activity against HIV-1 replication

| SMILES | EC50 [1] | IC50 [2] | further results |
| --- | --- | --- | --- |
| C=C(C)[C@@H]1CC[C@]2(CO)CC[C@]3(C)[C@H](CC[C@@H]4[C@@]5(C)CC[C@H](OC(=O)CCCC(=O)O)C(C)(C)[C@@H]5CC[C@]43C)[C@@H]12 [Compound 10, 3-O-glutaryl betulin] | 66.2 nM | – | IC50 [2, 4]: 44400 nM |
| C=C(C)[C@@H]1CC[C@]2(CO)CC[C@]3(C)[C@H](CC[C@@H]4[C@@]5(C)CC[C@H](OC(=O)CC(C)(C)CC(=O)O)C(C)(C)[C@@H]5CC[C@]43C)[C@@H]12 [Compound 8] | 4.4 nM | 28900 nM | – |
| C=C(C)[C@@H]1CC[C@]2(CO)CC[C@]3(C)[C@H](CC[C@@H]4[C@@]5(C)CC[C@H](OC(=O)CC(C)(C)C(=O)O)C(C)(C)[C@@H]5CC[C@]43C)[C@@H]12 [Compound 6] | 5.6 nM | 33500 nM | – |
| C=C(C)[C@@H]1CC[C@]2(CO)CC[C@]3(C)[C@H](CC[C@@H]4[C@@]5(C)CC[C@H](OC(=O)COCC(=O)O)C(C)(C)[C@@H]5CC[C@]43C)[C@@H]12 [Compound 12] | 24.6 nM | > 44800 nM | – |
| C=C(C)[C@@H]1CC[C@]2(CO)CC[C@]3(C)[C@H](CC[C@@H]4[C@@]5(C)CC[C@H](OC(=O)CCCC(=O)OCC)C(C)(C)[C@@H]5CC[C@]43C)[C@@H]12 [Compound 18, 3-O-glutaryl betulin ethyl ester] | 16.9 nM | – | IC50 [2, 4]: 36400 nM |
| CC(C)[C@@H]1CC[C@]2(C(=O)O)CC[C@]3(C)C(CCC4[C@@]5(C)CC[C@H](O)C(C)(C)C5CC[C@]43C)C12 (stereo partly shown) [dihydrobetulinic acid] | – | – | EC50 ([3]; unit inferred, read-out: EC50, anti-HIV activity): 900 nM |
| CC(=O)[C@@H]1CC[C@]2(C(=O)O)CC[C@]3(C)[C@H](CC[C@@H]4[C@@]5(C)CC[C@H](O)C(C)(C)[C@@H]5CC[C@]43C)[C@@H]12 [platanic acid] | – | – | EC50 [3, 5]: 6500 nM |
| C=C(C)[C@@H]1CC[C@]2(C(=O)O)CC[C@]3(C)[C@H](CC[C@@H]4[C@@]5(C)CC[C@H](O)C(C)(C)[C@@H]5CC[C@]43C)[C@@H]12 [Betulinic acid, betulinic acid] | – | – | EC50 [3, 5]: 1400 nM |
